Results taken from patent publication US20220220480A1, “METHODS AND COMPOSITIONS FOR TREATMENT OF NLRP3 IN[…] IL-1BETA DEPENDENT DISORDERS” (priority 2019, published 2022).

Experiments:
[1] = Imiquimod induced psoriasis-like phenotype, adapted PASI score; assay type: in vivo, C57BL/6J mice; details: day 4 of imiquimod administration, AZ13711265 10 mg/kg intraperitoneally daily; for Erythema score (PASI) / Scaling score (PASI): scale 0-4
Procedure: FIG. 5: 8 weeks old C57BL/6J mice were shaved two days before the experiment. One day before administration of imiquimod and daily for 5 days, mice were intraperitoneally injected with vehicle (60% PEG, 40% PBS) or with the Pak1 inhibitor AZ13711265 (10 mg/kg). Mice were treated in the back daily for 4 days either with Vaseline or with Aldara cream corresponding to 3,125 mg of imiquimod (IMQ) to induce psoriasis-like phenotype. The erythema and scaling was analyzed by an adapted version of the clinical PASI score, 0: none; 1: slight; 2: moderated; 3: strong; 4: very strong phenotype. The total score is the cumulative score of scaling and erythema. Results are expressed as mean±SEM. p-value: *<0.01, ***<0.001, compared to control
Futhermore, we investigated the effect of Pak1 kinase inhibitor on a psoriasis model. Dermal application of imiquimod induced a psoriasis-like phenotype including scaling and erythema that are scored using the PASI score.

[2] = test system: IL-1β maturation; experiment: IL-1β maturation by immunoblot in BMDMs treated with LPS and CNF1; assay type: cell-based, mouse; details: 5 μM IPA-3 or 1 μM FRAX597 45 min before CNF1 500 ng/mL and LPS 100 ng/mL 8 h (FIG. 2c)
Procedure: (a-b) BMDMs isolated from BALB/c mice were transfected for 72 h with siRNA targeting either NLRP3, Nek7, Pak1, Pak2 as indicated and non-targeting siRNA were used as control. […] (c) Supernatants and cell lysates were analyzed by immunoblot. […] Active Caspase 1 was stained with FAM-FLICA, analyzed by microscopy and FAM-FLICA positive cells were counted. (n=1000 per conditions). p-value ****<0.0001, compared to the CNF1-treated BMDMs (e) HEK293T cells were transfected with plasmids encoding NLRP3 inflammasome component (myc-NLRP3, ASC-GFP, mCaspase-1) together with Flag-Rac2Q61E (Q61E), myc-Pak1 wild type (WT) or myc-Pak1T423E (T423E) and caspase-1 cleavage was analyzed by immunoblot.
HEK 293T cells were obtained from ATCC (CRL-3216) and maintained according to ATCC instructions. Bone-marrow derived macrophages (BMDMs) were extracted from femurs of 6-10 weeks-old BALB/c, C57BL/6J or C57BL/6J KO mice as indicated in the figure legends and were cultured in RPMI GlutaMax medium (Life Technologies) supplemented with 100 ng/mL M-CSF (Premium grade, Miltenyi Biotec), 10% heat-inactivated FBS (Biowest) and 50 μg/mL gentamycin (Life Technologies) at 37° C. in an atmosphere containing 5% CO2. The cells were seeded at a concentration of 10^6 cells per well in a 6-well plate. After 6 days of differentiation, BMDMs were used for experiments. […]

[3] = test system: Caspase-1 activation; experiment: FAM-FLICA Caspase-1 activation assay by microscopy in BMDMs; assay type: cell-based, mouse; details: for Block of CNF1-triggered Caspase-1 activity/activation measured using FAM-FLICA: BMDMs, inhibitor 45 min before CNF1 500 ng/mL, 1 μM MCC950, 5 μM IPA-3, 1 μM FRAX597 (FIG. 1b, 2d)
Procedure: Bone-marrow derived macrophages (BMDMs) were extracted from femurs of 6-10 weeks-old BALB/c, C57BL/6J or C57BL/6J KO mice as indicated in the figure legends and were cultured in RPMI GlutaMax medium (Life Technologies) supplemented with 100 ng/mL M-CSF (Premium grade, Miltenyi Biotec), 10% heat-inactivated FBS (Biowest) and 50 μg/mL gentamycin (Life Technologies) at 37° C. in an atmosphere containing 5% CO2. The cells were seeded at a concentration of 10^6 cells per well in a 6-well plate. After 6 days of differentiation, BMDMs were used for experiments. NLRP3, NLRC4, PYRIN, and GSDMD knock-out BMDMs were a kind gift from M. Lamkanfi. […] SiRNAs were transfected in HEK 293T cells or BMDMs during 72 h using Lipofectamine RNAiMAX Reagent (ThermoFisher Scientific) according to the manufacturer instructions. Cells were transfected as indicated in figure legends with siRNAs targeting NLRP3 (L-053455-00, Dharmacon), Rac1 (L-041170-00, Dharmacon), Rac2 (L-041171-01, Dharmacon), Nek7 (J-063266-09, Dharmacon), PAK1 (L-048101-00, Dharmacon), PAK2 (L-040615-00, Dharmacon) or non-targeting control siRNA (D-001810-10, Dharmacon). […] Cells pre-treated with ultrapure LPS for 6 h followed by the addition of Nigericin 504 (Invivogen) or ATP 5 mM (Invivogen) for 30 minutes were used as positive control of NLRP3 inflammasome activation.
Caspase 1 activation was detected using the fluorescent probe FAM-FLICA (ImmunoChemistry Technologies) after 6 h of treatment, according to the manufacturer instructions. After labelling, cells were fixed in 4% paraformaldehyde for 15 min and blocked with 2% TBS-BSA. Cells were incubated with mouse anti-NLRP3 antibody (clone Cryo-2, Adipogen) for 1 hour followed by incubation with secondary antibody TexasRed anti-mouse IgG (TI-2000, Vector Laboratories) and Hoechst (Thermo Fisher Scientific) for 30 minutes. Cells were imaged using Nikon MR confocal microscope. […]
Primary bone marrow derived macrophages (BMDMs) were treated with CNF1 for 6 hours to trigger Caspase-1 activation. […] Cells with dots of FAM-FLICA staining were determined as positive (data not shown). […] To this aim, BMDMs were transfected with a siRNA library targeting mouse NLRs and Caspase-1 activation was monitored as previously described. […]

[4] = test system: E. coli expressing CNF1; experiment: Mouse model of bacteremia with E. coli expressing CNF1; assay type: in vivo; details: BALB/c mice, 48 h after infection
Procedure: Data are expressed as the geometric mean±95 CI *p<0.05.
Mice were injected intravenously with 10^7 CFUs of E. coli as previously described^8. For the determination of bacteremia, blood was collected from the tail vein at the indicated times post-infection, serially diluted in sterile PBS and plated on LB plates containing streptomycin (200 μg/ml) and the plates were incubated for 16 h at 37° C. Injection quality was controlled by plating blood samples obtained from the mice at 5 min after injection. NLRP3 knock-out mice were kindly provided by V. Petrilli and have been previously described^21. Female NLRP3 KO and female congenic WT C57BL/6J littermate mice were injected intravenously with 10^7 CFUs of E. coli and the determination of bacteremia was monitored as previously described^8.
Mice were infected with the same strain and concentration of CNF1 expressing E. coli and the bacteremia was measured on each infected mouse at 0 h, 4 h, 24 h and 48 h.

## CCS(=O)(=O)c1cc(Nc2ncc(F)c(N(C)c3cc(CO)c(C)cc3C)n2)ccc1N1C[C@@H]2C[C@H]1CN2C [AZ13711265]
[1]
  Total PASI score (cumulative score of scaling and erythema): 3.1
  Erythema score (PASI): 1.4
  Scaling score (PASI): 1.7

## CCn1c(=O)c(-c2ccc(-c3cncs3)cc2Cl)cc2cnc(Nc3ccc(N4CCN(C)CC4)cc3)nc21 [FRAX597]
[2]
  Block of IL-1β maturation in macrophages treated with LPS and CNF1: sufficient to block
[3]
  Block of CNF1-triggered Caspase-1 activity/activation measured using FAM-FLICA: sufficient to block

## Oc1ccc2ccccc2c1SSc1c(O)ccc2ccccc12 [IPA-3]
[2]
  Block of IL-1β maturation in macrophages treated with LPS and CNF1: sufficient to block
[3]
  Block of CNF1-triggered Caspase-1 activity/activation measured using FAM-FLICA: sufficient to block

## CC(C)(O)c1coc(S(=O)(=O)NC(=O)Nc2c3c(cc4c2CCC4)CCC3)c1 [MCC950]
[4]; MCC950 50 mg/kg IP once a day, control group 0
  Animals found positive for bacteria: 56%
[4]; MCC950 50 mg/kg IP
  Bacterial load compared to control group: statistically significant higher
[3]
  Block of CNF1-triggered Caspase-1 activity/activation measured using FAM-FLICA: sufficient to block

## CO[C@@H]1C[C@@H](C[C@H]2CC[C@H](C)[C@H]([C@@H](C)C(=O)O)O2)O[C@]2(O[C@](C)([C@H]3CC[C@@](C)([C@@H]4O[C@@H]([C@H]5O[C@@](O)(CO)[C@H](C)C[C@@H]5C)C[C@@H]4C)O3)C[C@H]2C)[C@@H]1C [Nigericin]
[3]; WT BMDMs (FIG. 1b), control condition 2.5%
  FAM-FLICA positive cells (mean): 15.4%

## CC(C)Cn1cnc2c(N)nc3ccccc3c21 [imiquimod]
[1]
  Total PASI score (cumulative score of scaling and erythema): 6.5
  Erythema score (PASI): 3
  Scaling score (PASI): 3.5
